Data as given in the supplement of paper PMC10307832.

Assays:
Test in all cases: relative viability (nuclei count vs DMSO), 5 days (fraction); higher = more cells survive
[1] = compound: C=CC(=O)N1CCC[C@@H](n2nc(-c3ccc(Oc4ccccc4)cc3)c3c(N)ncnc32)C1 [Ibrutinib] + O=C(c1cc(Cc2n[nH]c(=O)c3ccccc23)ccc1F)N1CCN(C(=O)C2CC2)CC1 [Olaparib] (partner 8 µM)
Method in brief: (§1)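 Relative viability divides the nuclei count in treated wells by that in vehicle wells. Lung cancer cell lines were seeded in 1536-well plates, dosed by pin tool the next day, and fixed and stained after 5 days in one step with final 0.05% Triton X-100, 1% formaldehyde and 1 ug/ml Hoechst. Dosing was a single drug or a fixed anchor-drug dose plus five library-drug doses (not always all listed) in √10 steps, and values are medians of duplicate plates imaged at 4×.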

[2] = compound: C=CC(=O)Nc1cc(-n2c(=O)ccc3cnc4ccc(-c5ccc(NS(C)(=O)=O)cc5)cc4c32)ccc1C [BMX-IN-1] + N=C(N)NC(=N)NCCc1ccccc1 [Phenformin] (partner 250 µM)
Method in brief: as §1

[3] = compound: C=CC(=O)N1CCC[C@@H](n2nc(-c3ccc(Oc4ccccc4)cc3)c3c(N)ncnc32)C1 [Ibrutinib] + CS(=O)(=O)N1CCN(Cc2cc3nc(-c4cccc5[nH]ncc45)nc(N4CCOCC4)c3s2)CC1 [Pictilisib] (partner 1 µM)
Method in brief: as §1

[4] = compound: C=CC(=O)Nc1cc(-n2c(=O)ccc3cnc4ccc(-c5ccc(NS(C)(=O)=O)cc5)cc4c32)ccc1C [BMX-IN-1] + O=C(c1cc(Cc2n[nH]c(=O)c3ccccc23)ccc1F)N1CCN(C(=O)C2CC2)CC1 [Olaparib] (partner 8 µM)
Method in brief: as §1

| Cell Line | relative viability ([1]; first compound 0.005 µM) | relative viability ([1]; first compound 0.01581 µM) | relative viability ([1]; first compound 0.05 µM) | relative viability ([1]; first compound 0.1581 µM) | relative viability ([1]; first compound 0.5 µM) | relative viability ([2]; first compound 0.02 µM) | relative viability ([2]; first compound 0.2 µM) | relative viability ([2]; first compound 0.6325 µM) | relative viability ([2]; first compound 2 µM) | relative viability ([3]; first compound 0.005 µM) | relative viability ([3]; first compound 0.01581 µM) | relative viability ([3]; first compound 0.05 µM) | relative viability ([3]; first compound 0.1581 µM) | relative viability ([3]; first compound 0.5 µM) | relative viability ([4]; first compound 0.02 µM) | relative viability ([4]; first compound 0.2 µM) | relative viability ([4]; first compound 0.6325 µM) | relative viability ([4]; first compound 2 µM) |
| --- | --- | --- | --- | --- | --- | --- | --- | --- | --- | --- | --- | --- | --- | --- | --- | --- | --- | --- |
| NCI-H727 | 0.736 | 0.817 | 0.659 | 0.792 | 0.688 | 0.532 | 0.546 | 0.584 | 0.392 | 0.253 | 0.471 | 0.246 | 0.298 | 0.343 | 0.555 | 0.642 | 0.703 | 0.688 |
| NCI-H838 | 0.794 | 0.693 | 0.849 | 0.866 | 0.825 | 0.564 | 0.739 | 0.744 | 0.572 | 0.343 | 0.38 | 0.514 | 0.472 | 0.543 | 0.81 | 0.933 | 0.915 | 0.859 |
| NCI-H1355 | – | 0.664 | 0.77 | 0.73 | 0.661 | 0.397 | 0.477 | 0.453 | 0.481 | – | 0.474 | 0.481 | 0.26 | 0.343 | 0.805 | 0.813 | 0.713 | 0.749 |
| NCI-H1395 | 0.475 | 0.472 | 0.469 | 0.468 | 0.449 | 0.445 | 0.456 | 0.444 | 0.47 | 0.611 | 0.555 | 0.538 | 0.562 | 0.655 | 0.433 | 0.45 | 0.452 | 0.45 |
| NCI-H1437 | 0.681 | 0.626 | 0.721 | 0.641 | 0.628 | 0.281 | 0.342 | 0.334 | 0.326 | 0.346 | 0.413 | 0.428 | 0.359 | 0.443 | 0.662 | 0.647 | 0.692 | 0.664 |
| NCI-H1650 | 0.73 | 0.836 | 0.805 | 0.822 | 0.754 | 0.493 | 0.44 | 0.446 | 0.413 | 0.493 | 0.52 | 0.506 | 0.515 | 0.476 | 0.977 | 0.914 | 0.762 | 0.77 |
| NCI-H1651 | 0.193 | 0.183 | 0.173 | 0.176 | 0.185 | 0.292 | 0.451 | 0.394 | 0.363 | 0.502 | 0.482 | 0.466 | 0.627 | 0.643 | 0.175 | 0.182 | 0.18 | 0.183 |
| NCI-H1666 | 0.844 | 0.672 | 0.772 | 0.694 | 0.703 | 0.572 | 0.581 | 0.597 | 0.607 | 0.388 | 0.358 | 0.31 | 0.409 | 0.235 | 0.753 | 0.806 | 0.631 | 0.769 |
